Laboratory results published in patent US20250326738A1, “MALT1 Modulators and Uses Thereof” (Rarefied Biosciences, Inc., priority 2022, published 2025).

How the values were obtained:
[1] = target: T1, full length MALT1 (Homo sapiens, UniProt Q9UDY8); test: MALT1 biochemical assay (fluorogenic peptide substrate cleavage); details: full length MALT1, 15 nM enzyme, 30 μM peptide substrate, 30 min pre-incubation, 60 min reaction; mean if tested more than once
T1 construct: measuring enzymatic activity of full length MALT1 at varying concentrations of compound
T1 sequence (Q9UDY8 1-824): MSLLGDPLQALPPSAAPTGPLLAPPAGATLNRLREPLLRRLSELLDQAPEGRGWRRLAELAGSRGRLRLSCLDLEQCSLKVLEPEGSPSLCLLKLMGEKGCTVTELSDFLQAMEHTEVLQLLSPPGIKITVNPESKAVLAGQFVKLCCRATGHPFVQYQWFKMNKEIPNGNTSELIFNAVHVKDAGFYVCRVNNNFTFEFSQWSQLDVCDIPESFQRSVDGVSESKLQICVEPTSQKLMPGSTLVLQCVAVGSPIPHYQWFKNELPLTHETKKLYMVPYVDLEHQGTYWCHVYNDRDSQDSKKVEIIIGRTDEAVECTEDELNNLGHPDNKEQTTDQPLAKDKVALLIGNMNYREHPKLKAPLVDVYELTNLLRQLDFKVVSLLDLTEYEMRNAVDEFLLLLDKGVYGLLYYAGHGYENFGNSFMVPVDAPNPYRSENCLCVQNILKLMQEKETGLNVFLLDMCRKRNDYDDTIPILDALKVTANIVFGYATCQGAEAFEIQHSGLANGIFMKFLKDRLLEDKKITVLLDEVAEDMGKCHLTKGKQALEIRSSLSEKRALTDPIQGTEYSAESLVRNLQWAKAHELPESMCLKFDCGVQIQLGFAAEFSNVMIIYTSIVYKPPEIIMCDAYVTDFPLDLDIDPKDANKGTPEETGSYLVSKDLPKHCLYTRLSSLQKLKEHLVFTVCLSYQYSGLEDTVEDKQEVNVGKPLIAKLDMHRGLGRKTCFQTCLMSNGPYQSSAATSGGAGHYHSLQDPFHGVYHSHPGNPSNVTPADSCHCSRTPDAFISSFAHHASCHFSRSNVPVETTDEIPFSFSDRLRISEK
Procedure: Inhibitor potency was evaluated by measuring enzymatic activity of full length MALT1 at varying concentrations of compound. The enzymatic assay consists of a single substrate reaction that monitors the release of a fluorescent dye upon cleavage of the peptide substrate. […] The assay buffer consists of 50 mM Hepes, pH 7.5, 0.8 M sodium citrate, 1 mM DTT, 0.004% tween-20, and 0.005% bovine serum albumin (BSA). […] The reaction was quenched after 60 minutes with the addition of iodoacetate at a final concentration of 10 mM. Total fluorescence was measured using an Envision (PerkinElmer) with fluorescence excitation at 485 nm and emission at 520 nm.
The reaction was initiated with the addition of 10 μL of peptide substrate. […] IC50 values were calculated by fitting the concentration-response curves to a four-parameter logistic equation in GraphPad Prism.
“N/A” indicates not tested.

[2] = system: Jurkat IL-2; test: Jurkat IL-2 assay (IL-2 inhibition by ELISA after anti-CD3/28/2 stimulation); type: cell-based; details: Homo sapiens; Jurkat clone E6.1, IL-2 in supernatant, 30 min pre-incubation, anti-CD3/28/2 stimulation 24 hours; mean if tested more than once
Procedure: Inhibition was determined in a cell-based assay using Jurkat (ATCC, clone E6.1), an immortalized T-cell line, exposed to a dose response of compound and assessed for viability, and IL-2 inhibition by ELISA. Cells were cultured in RPMI/10% FBS (Invitrogen 11875093, Atlanta Biologicals S12450H), maintained below 3E6/mL and only used in assays while below passage 25. Compounds were stamped by ECHO onto 384w plates (PerkinElmer Culturplate, 6007680). The cells were plated in fresh media on top of compound and incubated for 30 minutes before stimulation with soluble anti-CD3/28/2 (Stemcell, 10970) for 24 hours. Supernatant was collected and assessed for IL-2 (MSD, 384w, L21SA-1). To assess viability of cells treated with compound, cells were lysed with CTG reagent (Promega, G7570), and measured by luminometer. […] IC50s calculated using 4-parameter fit in GraphPad Prism.
“N/A” indicates not tested. For a compound that was tested in more than one experiment, the result shown represents the mean value.

| Structure (SMILES) | IC50 [1] [nM] | IC50 [2] [nM] |
| --- | --- | --- |
| CN(C(=O)C1CCS(=O)(=O)CC1)[C@@H](c1ccc(Nc2cnn(C)c2C(F)(F)F)cc1)C(F)(F)F [Compound 1.1, (S)—N-methyl-N-(2,2,2-trifluoro-1-(4-((1-methyl-5-(trifluoromethyl)-1H-pyrazol-4-yl)amino)phenyl)ethyl)tetrahydro-2H-thiopyran-4-carboxamide 1,1-dioxide] | > 1000 | > 1000 |
| CN(C(=O)C1CCS(=O)(=O)CC1)[C@@H](c1ccc(Nc2cnn(-c3cccc4ncccc34)c2C(F)(F)F)cc1)C(F)(F)F [Compound 1.2] | 100 to 1000 | 100 to 1000 |
| Cc1ccccc1-n1ncc(Nc2ccc([C@H](N(C)C(=O)C3CCS(=O)(=O)CC3)C(F)(F)F)cc2)c1C(F)(F)F [Compound 1.3] | > 1000 | 100 to 1000 |
| CN(C(=O)C1CCS(=O)(=O)CC1)[C@@H](c1ccc(Nc2cnn(C)c2-c2ccccc2)cc1)C(F)(F)F [Compound 1.4] | > 1000 | > 1000 |
| CC(C)c1c(Nc2ccc([C@H](N(C)C(=O)C3CCS(=O)(=O)CC3)C(F)(F)F)cc2)cnn1C [Compound 1.5] | > 1000 | > 1000 |
| CN(C(=O)C1CCS(=O)(=O)CC1)[C@@H](c1ccc(Nc2cnn(-c3ccccc3)c2C(F)(F)F)cc1)C(F)(F)F [Compound 1.6] | 100 to 1000 | 100 to 1000 |
| CN(C(=O)C1CCS(=O)(=O)CC1)[C@@H](c1ccc(Nc2cnn(C3CC3)c2C(F)(F)F)cc1)C(F)(F)F [Compound 1.7] | 100 to 1000 | 100 to 1000 |
| CC(C)c1c(Nc2ccc([C@H](N(C)C(=O)C3CCS(=O)(=O)CC3)C(F)(F)F)cc2)cnn1-c1ccccc1 [Compound 1.8] | 100 to 1000 | 100 to 1000 |
| CC(C)n1ncc(Nc2ccc([C@H](N(C)C(=O)C3CCS(=O)(=O)CC3)C(F)(F)F)cc2)c1C(F)(F)F [Compound 1.9] | 100 to 1000 | 100 to 1000 |
| CN(C(=O)C1CCS(=O)(=O)CC1)[C@@H](c1ccc(Nc2cnn(CC(C)(C)O)c2C(F)(F)F)cc1)C(F)(F)F [Compound 1.10] | > 1000 | > 1000 |
| COCC(C)n1ncc(Nc2ccc([C@H](N(C)C(=O)C3CCS(=O)(=O)CC3)C(F)(F)F)cc2)c1C(F)(F)F (stereo partly drawn) [Compound 1.11] | > 1000 | > 1000 |
| CN(C(=O)C1CCS(=O)(=O)CC1)[C@@H](c1ccc(Nc2cnn(CC(C)(C)C)c2C(F)(F)F)cc1)C(F)(F)F [Compound 1.12] | > 1000 | > 1000 |
| CN(C(=O)C1CCS(=O)(=O)CC1)[C@@H](c1ccc(Nc2cnn(-c3cccnc3)c2C(F)(F)F)cc1)C(F)(F)F [Compound 1.13] | < 100 | < 100 |
| CN(C(=O)C1CCS(=O)(=O)CC1)[C@@H](c1ccc(Nc2cnn(-c3ccncc3)c2C(F)(F)F)cc1)C(F)(F)F [Compound 1.14] | 100 to 1000 | < 100 |
| CN(C(=O)C1CCS(=O)(=O)CC1)[C@@H](c1ccc(Nc2cnn(-c3ccccn3)c2C(F)(F)F)cc1)C(F)(F)F [Compound 1.15] | < 100 | < 100 |
| CN(C(=O)C1CCS(=O)(=O)CC1)[C@@H](c1ccc(Nc2cnn(-c3ccccc3C#N)c2C(F)(F)F)cc1)C(F)(F)F [Compound 1.16] | 100 to 1000 | 100 to 1000 |
| CN(C(=O)C1CCS(=O)(=O)CC1)[C@@H](c1ccc(Nc2cnn(-c3cccc(C#N)c3)c2C(F)(F)F)cc1)C(F)(F)F [Compound 1.17] | < 100 | < 100 |
| CN(C(=O)C1CCS(=O)(=O)CC1)[C@@H](c1ccc(Nc2cnn(-c3ncccn3)c2C(F)(F)F)cc1)C(F)(F)F [Compound 1.18] | > 1000 | > 1000 |
| CN(C(=O)C1CCS(=O)(=O)CC1)[C@@H](c1ccc(Nc2cnn(-c3cnccn3)c2C(F)(F)F)cc1)C(F)(F)F [Compound 1.19] | 100 to 1000 | < 100 |
| CC(=O)N1CC(C(=O)N(C)[C@@H](c2ccc(Nc3cnn(-c4cccnc4)c3C3CC3)cc2)C(F)(F)F)C1 [Compound 1.41] |  | 100 to 1000 |
